Assay results taken from publication PMC9781803, “Phenotypic and Target-Directed Screening Yields New Acaricidal Alternatives for the Control of Ticks” (Molecules, 2022).
Like-named read-outs stand apart in the source and are kept apart here. Marks after values point to notes of the source that are not given here.

Experiments:
[1] = system: fully engorged females of the Mozo susceptible strain of R. microplus; experiment: Adult Immersion Test (AIT); type: in vivo; settings: for % of Mortality AIT: compounds 1.5 mM, 15 min immersion, 14 days
Protocol: This essay was performed based on Drummond et al., 1973, as each group of 5 fully engorged females of the Mozo susceptible strain of R. microplus was immersed in 50 mL tubes containing 10 mL of compounds at different concentrations (0.5, 1, 1.5, 2, 3.5 mM) for 15 min in four replicates. Four negative control groups were used (DMSO 10%). After immersion, the fully engorged females were lightly dried with absorbent paper. They were then placed in 100 mm disposable Petri dishes with their respective identification, and immediately incubated at 27 °C in an atmosphere with relative humidity (RH) of 85-90% for 14 days. […] The tubes carrying the eggs were closed with hydrophilic cotton, and were returned to the incubator chamber under the same conditions until the eggs hatched. The reproductive efficacy, as well as % control of each compound on R. microplus, was calculated according to published reports. The results were verified in two independent experiments.

[2] = system: R. microplus (Mozo strain) larvae; experiment: Larval Immersion Test (LIT); type: in vivo
Protocol: (§1) This assay was performed based on the method of Castro-Janer et al., 2011. Fully engorged females of R. microplus (Mozo strain) were incubated in Petri dishes at 27 °C and 85–90% relative humidity for 14 days. […] The tubes were incubated in the same conditions as described above. The larvae were ready for testing after 14 to 21 days from egg-hatching. For the test, the compounds were diluted in DMSO, and were later resuspended in distilled water, always using 15% DMSO of the final solution volume. The concentrations for the different compounds for the final immersion solution are 1 mg/mL for the extracts, and 1 mM for the compounds. […] For the immersion procedure, tubes containing the larvae were placed vertically, without the cotton plug, and the larvae were taken with a brush from the top of the tube, ensuring they were viable. A cluster with a diameter of 2 mm of larvae was collected with a brush, and was later immersed in each solution, as well as in both control solutions, for 10 min. After this time, the solutions were drained, and the larvae were placed in 8.5 cm × 7.5 cm Whatman No. 1 filter papers. The filters were folded in the middle of the 8.5 cm side, and closed with 3 bulldog clips, forming packets. These packets were incubated for 24 h, under the same conditions as described previously, and then the percent of mortality was determined, considering it as the % of the control.

[3] = system: embryonic cell line BME26; experiment: Phenotypic screening on BME26 cell cultures (MTT viability); type: cell-based, R. microplus; settings: for IC50: BME26 cells, 24 h, MTT, read-out: IC50; for inhibition at 100 µM: synthetic compounds at 100 μM, BME26, 24 h, read-out: % of Growth Inhibition
Protocol: The embryonic cell line BME26 from R. microplus (Centro de Biotecnologia, Universidade Federal do Rio Grande do Sul, Porto Alegre, RS, Brazil) was grown as adherent monolayers in a complete medium, as described previously, which consisted of L-15B300 medium supplemented with 5% heat-inactivated Fetal Bovine Serum (FBS) (Gibco Co., Grand Island, NY), 10% Tryptose Phosphate Broth (TPB) (BD), penicillin (100 U/mL), streptomycin ([…], Gibco Co., Grand Island, NY, USA), and 0.1% bovine lipoprotein concentrate (ICN), (pH 7.2). The suspension of embryonic BME26 cells from R. microplus was seeded into 24-well plates (5 × 10^5 cells/well) to a final volume of 500 μL in a complete medium, and allowed to attach. After 24 h incubation at 34 °C, the extracts (100 µg/mL final concentration) and the compounds were added to the final concentrations indicated (1–100 µM), and 0.05% dimethylsulfoxide (DMSO) was used in the negative control wells. After 24 h of treatment, 50 μL of 3-(4,5-dimethylthiazol-2-yl)-2,5-diphenyltetrazolium bromide (MTT) prepared in serum-free medium (5 mg/mL) was added to each well. The media were discarded after 2 additional hours of incubation, and 1 mL of acid-isopropyl alcohol (0.15% HCl in isopropyl alcohol) was added to dissolve the formazan crystals. The mixture was transferred to 1.5 mL tubes, centrifuged at 6000× g for 15 min, and the clear supernatant was collected in new tubes for absorbance measurement at 570 nm using quartz cuvettes in a UVmini-1240 UV–vis spectrophotometer (Shimadzu, Japan). Absorbance values of the control treatment were used for normalization (100% viability). The activity was determined by analysis using OriginLab8.5® sigmoidal regression (% of viable cells compared to the logarithm of the compound concentration). The half-maximal inhibitory concentration (IC50), defined as the drug concentration at which 50% of the cells were viable relative to the control (no drug added), was used as a measurement of activity. These experiments were performed in triplicate for each compound.

[4] = system: J774.1 murine macrophages; experiment: Cytotoxicity assay on murine macrophages (MTT); type: cell-based; settings: for IC50: J774.1, 48 h, read-out: IC50 (µM) Mammalian Cells; for EC50: read-out: EC50 (µM) for Mammalian Cells
Protocol: J774.1 murine macrophages (ATCC, Rockville, MD, USA) were grown in a DMEM culture medium containing 4 mM L-glutamine, and supplemented with 10% FCS. The cells were seeded into a 96-well plate (5 × 10^4 cells in 200 µL culture medium) and incubated at 37 °C in a 5% CO2 atmosphere for 48 h, to allow cell adhesion before drug testing. Afterward, the cells were exposed for 48 h to the compounds (25–400 μM) or the vehicle (0.4% DMSO), and additional controls (cells in medium) were used in each test. Cell viability was then assessed by measuring the mitochondria-dependent reduction of MTT to formazan: for this, MTT in sterile PBS (0.2% glucose), pH 7.4, was added to the macrophages, to a final concentration of 0.1 mg/mL, and the cells were then incubated at 37 °C for 3 h. After removing the medium, the formazan crystals were dissolved in 180 μL of DMSO and 20 μL of MTT buffer (0.1 M glycine, 0.1 M NaCl, 0.5 mM EDTA, pH 10.5), and the absorbance was measured at 560 nm. The IC50 was defined as the drug concentration at which 50% of the cells were viable, relative to the control (no drug added), and was determined by analysis using OriginLab 8.5 Corporation, Northampton, MA, USA, sigmoidal regression (% of viable cells compared to the logarithm of the compound concentration). The tests were performed in triplicate in two independent experiments.

R. microplus = experiment: Acaricidal activity on R. microplus (LIT and AIT, overall statement); type: in vivo; settings: LIT 1 mM and AIT 1.5 mM
Protocol: as §1, with “After immersion, the fully engorged females were lightly dried with absorbent paper. […] The tubes carrying the eggs were closed with hydrophilic cotton, and were returned to the incubator chamber under the same conditions until the eggs hatched. The reproductive efficacy, as well as % control of each compound on R. microplus, was calculated according to published reports. The results were verified in two independent experiments. This” for “This”, “2011.” for “2011. Fully engorged females of R. microplus (Mozo strain) were incubated in Petri dishes at 27 °C and 85–90% relative humidity for 14 days.”, “volume.” for “volume. The concentrations for the different compounds for the final immersion solution are 1 mg/mL for the extracts, and 1 mM for the compounds.”

[5] = set-up: method as in PMID 28481276; settings: experimental data; cited from earlier work
[6] = set-up: method as in PMID 28481276; settings: in mice; cited from earlier work
[7] = system: ticks of the population of multiresistant field; experiment: Adult immersion test on multiresistant field population (Table S3); type: in vivo, R. microplus; settings: preliminary study
[8] = target: R. microplus triosephosphate isomerase (RmTIM) (Rhipicephalus microplus, UniProt A8B3A8); experiment: biochemical; settings: for IC50: RmTIM, read-out: IC50
Protocol: (§2) R. microplus triosephosphate isomerase (RmTIM) and Homo sapiens triosephosphate isomerase (HsTIM) were expressed in Escherichia coli, and purified as previously described in the literature. Protein concentration was determined by absorbance measurements at 280 nm for RmTIM (ε = 33440 M^−1cm^−1) and HsTIM (ε = 33460 M^−1cm^−1). Enzymatic activity was determined following the reaction of the conversion of glyceraldehyde-3-phosphate to dihydroxyacetone phosphate in a coupled enzyme assay using α-glycerol-phosphate dehydrogenase. The decrease in absorbance at 340 nm was recorded in a multiplate reader Varioskan™ Flash Multimode Reader (Thermo Scientific^TM, Waltham, MA, USA) at 25 °C. The reaction mixture ([…], pH 7.4) contained 100 mM triethanolamine, 10 mM EDTA, 0.2 mM NADH, 1 mM glyceraldehyde-3-phosphate, and 0.9 units of α-glycerol-phosphate dehydrogenase. The reaction was initiated by the addition of 5 ng/mL of the TIM of interest. For the inhibition studies (incubation mixture), TIM was incubated at a concentration of 5 mg/mL in a buffer of pH 7.4 containing 100 mM triethanolamine, 10 mM EDTA, and 10% DMSO at 25 °C for 1 h. The mixture also contained the compounds, dissolved in DMSO, at final concentrations of 10 and 100 μM. After 1 h, 10 μL of the incubation mixture was added to the reaction mixture, to a final volume of 100 μL in a 96-well plate. None of the molecules tested here affected the activity of α-glycerol-phosphate dehydrogenase (checked in situ on the reaction mixture inhibited, with the addition of fresh α-glycerol-phosphate dehydrogenase and running the measurement again). The IC50 value was taken as the concentration of drug needed to reduce the enzymatic activity by 50%, and was analyzed using OriginLab 8.5 Corporation, Northampton, MA, USA, sigmoidal regression (% of enzymatic activity vs. the logarithm of the compound concentration). The tests were performed in triplicate in two independent experiments.

[9] = target: T1, Homo sapiens triosephosphate isomerase (HsTIM) (Homo sapiens, UniProt P60174); experiment: Enzymatic activity of TIM, coupled enzyme assay; type: biochemical
T1 construct: made in house; host or cells: Escherichia coli
Protocol: as §2

[10] = compounds 1.0 mM, 10 min immersion, 24 h
[11] = Mus musculus, J774.1, cytotoxicity
[12] = 1 h incubation, read-out: % Inhibition of Enzymatic Activity of RmTIM

T1 sequence (P60174 whole entry): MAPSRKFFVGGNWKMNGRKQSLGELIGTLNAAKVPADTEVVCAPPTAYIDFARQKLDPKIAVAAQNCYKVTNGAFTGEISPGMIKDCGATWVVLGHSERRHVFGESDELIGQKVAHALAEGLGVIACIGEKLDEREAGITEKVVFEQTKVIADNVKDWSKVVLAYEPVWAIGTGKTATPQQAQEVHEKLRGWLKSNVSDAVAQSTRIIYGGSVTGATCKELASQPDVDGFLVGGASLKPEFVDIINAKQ
Chain of R. microplus triosephosphate isomerase (RmTIM) (A8B3A8 entry or part of it): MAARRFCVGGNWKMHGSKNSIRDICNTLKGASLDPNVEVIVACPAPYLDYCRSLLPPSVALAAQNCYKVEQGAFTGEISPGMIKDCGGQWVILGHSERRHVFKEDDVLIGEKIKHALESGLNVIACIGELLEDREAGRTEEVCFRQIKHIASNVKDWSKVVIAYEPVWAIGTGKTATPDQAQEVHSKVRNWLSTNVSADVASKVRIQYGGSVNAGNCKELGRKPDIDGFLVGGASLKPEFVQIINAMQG

Row | IC50 [8] [µM] | inhibition at 10 µM [8, 12] [%] | inhibition at 10 µM [9] [%] | Compound | % of Mortality AIT [1] [%] | % of Mortality LIT [2, 10] [%] | IC50 [3] [µM] | inhibition at 100 µM [3] [%] | IC50 ([4]; Mus musculus) [µM] | acaricidal activity (in words) (R. microplus) | EC50 [4, 11] [µM] | further results
1 | – | – | – | Cc1ccc(/N=C/N(C)/C=N/c2ccc(C)cc2C)c(C)c1 [Amitraz, reference compound] | 100 | 100 | – | – | – | – | – | –
2 | – | – | – | O=C(/C=C/c1cccs1)/C=C/c1cccs1 [compound 796] | 20 ± 1 | 36 ± 8 | 15 ± 3 | 93 | > 50 | acaricidal potential against R. microplus similar to Amitraz | – | Mutagenicity by Ames Test [5]: Negative *; LD50 (mg/kg) [6]: >2000^+ mg/kg
3 | – | – | – | Ivermectin [reference compound] | – | – | – | – | – | – | – | % of Mortality LIT ([2]; commercial ivermectin control at 0.082 mM): 100%
4 | – | – | – | O=C(/C=C/c1ccccn1)c1ccccc1O [compound 885] | 100 ± 9 | 100 ± 9 | 17 ± 4 | 91 | > 50 | acaricidal potential against R. microplus similar to Amitraz | – | LC50 ([1]; adult females): 1000 µM; acaricidal activity on multiresistant strain (in words) [7]: had acaricidal activity
5 | – | – | – | Cc1c(/C=C/C(=O)c2ccccc2O)no[n+]1[O-] [compound 1253] | – | 50 ± 8 | 12 ± 1 | 95 | > 50 | acaricidal potential | – | –
6 | < 10 | 82 | 0 | O=C(N/N=C/C=C/c1ccco1)c1ccccn1 [compound 1367] | – | – | – | – | – | did not show reproducible acaricidal activity | > 50 | –
7 | < 10 | 88 | 0 | O=C1/C(=C/c2ccccc2)CCC/C1=C\c1ccccc1 [compound 799] | – | – | – | – | – | did not show reproducible acaricidal activity | > 50 | –
8 | 23 ± 2 | – | 0 | Clc1ccc(-c2csc(/N=C/C=C/c3ccco3)n2)cc1 [compound 910] | – | – | – | – | – | did not show reproducible acaricidal activity | > 50 | inhibition at 100 µM ([8]; at 100 µM (**), 1 h incubation, read-out: % Inhibition of Enzymatic Activity of RmTIM): 60%
9 | < 10 | 95 | 0 | O=C1/C(=C2\Nc3ccccc3C2=O)Nc2ccccc21 [compound 879] | – | – | – | 9 | – | did not show reproducible acaricidal activity | > 50 | –

Row | Compound | IC50 [8] [µM] | inhibition at 10 µM [8, 12] [%] | inhibition at 10 µM [9] [%] | % of Mortality AIT [1] [%] | % of Mortality LIT [2, 10] [%] | IC50 [3] [µM] | inhibition at 100 µM [3] [%] | IC50 ([4]; Mus musculus) [µM] | acaricidal activity (in words) (R. microplus) | EC50 [4, 11] [µM] | further results
10 | COc1cc(/C=C/c2cc(/C=C/[c-]3cccc3)[nH]n2)ccc1O.[Fe+2].c1cc[cH-]c1 [Mar106, 2-Methoxy-4-((E)-2-(5-((E)-ferrocenylvinyl)-1H-pyrazol-3-yl)vinyl)phenol] | 25 ± 4 | – | – | – | – | – | – | – | did not show reproducible acaricidal activity | – | EC50 ([4]; cytotoxicity): > 25 µM; % Inhibition of Enzymatic Activity of RmTIM ([8]; at 100 µM (**), 1 h incubation): 69 ** %; % Inhibition of Enzymatic Activity of HsTIM at 10 µM ([9]; at 10 µM): 0%
